This is an account of results in patent US20260174819A1, “COMPOSITIONS AND METHODS FOR OBTAINING HUMAN ALVEOLAR CELLS AND RELATED USES THEREOF” (The Regents of the University of Michigan, priority 2022, published 2026).

For assay [1], the system named is BTP organoids. The assay can be described thus: BTP organoid differentiation, RT-qPCR of AT2 and BTP markers. The note with it: 7 days. In kind it is cell-based, human. On the procedure: Primary BTP organoid cultures from 15-18.5 weeks post conception lung tissue were established and maintained as previously reported^3,21,22. BTP organoids were maintained in maintenance media (described below) under 8 mg/mL Matrigel (Corning Cat #354234), fed every three days and passaged 1:3 every 7-10 days by needle sheering.
Differentiations were performed on BTP organoids at passage three by removing maintenance media consisting of: DMEM/F-12 (Corning, Cat #10-092-CV), 100 U/mL penicillin-streptomycin (Thermo Fisher, Cat #15140122), 1×B-27 supplement (Thermo Fisher, Cat #17504044), 1× N2 supplement (Thermo Fisher, Cat #17502048), 0.05% BSA (Sigma, Cat #A9647), 50 μg/mL L-ascorbic acid (Sigma,Cat #A4544), 0.4 μM 1-Thioglycerol (Sigma, Cat #M1753), 50 nM all-trans retinoic acid (Sigma, Cat #R2625), 10 ng/ml recombinant human FGF7 (R&D Systems, Cat #251-KG), and 3 μM CHIR99021 (APE×BIO, Cat #A3011) and replacing with differentiation media. For data in FIG. 3 multiple differentiation medias were tested, all of which consisted of maintenance media with the addition of 1 μM A-8301 and/or the addition of 100 ng/ml BMP4 and/or removal of all trans retinoic acid. B-27 supplement without vitamin A (Thermo Fisher, Cat #12587010) was used instead of full B-27 supplement in conditions in which all trans retinoic acid was removed. For data in all FIGS. 4, 6, 7, 10 differentiation media consisted of common components: DMEM/F12, 100 U/mL penicillin-streptomycin, 1×B-27 supplement without vitamin A, 1× N2 supplement, 0.05% BSA, 50 μg/mL L-ascorbic acid, 0.4 μM 1-Thioglycerol. 10 ng/ml recombinant human FGF7, and 3 μM CHIR99021. To make CK+AB differentiation media 1 μM A-8301 and 100 ng/mL BMP4 was added. To make CKDCI differentiation media 50 nM Dexamethasone (Sigma, Cat #D4902), […] 3-isobutyl-1-methylxanthine (Sigma, Cat #I5879) and […] 8-Bromoadensoine 3′,5′-cyclic monophosphate sodium salt (Sigma, Cat #B7880) was added. Differentiations were fed every three days and passaged at seven day intervals by needle sheering.
(§1) Organoids were dislodged from Matrigel using a P1000 tip, pelleted in a 1.5 mL tube and flash frozen by placing the tube in a small amount of liquid nitrogen with minimal residual media. RNA was isolated from frozen pellets using the MagMax-96 Total RNA Isolation kit (Thermo Fisher, Cat #AM1830) according to the manufacturer's recommendations. RNA quality and yield was determined on a Nanodrop 2000 spectrophotometer. Reverse Transcription was performed in triplicate for each biological replicate using the SuperScript VILO cDNA kit with 200 ng RNA per reaction. After Reverse Transcription, cDNA was diluted 1:2 with DNAse/RNAse free water and 1/40th of the final reaction was used for each RT-qPCR measurement. RT-qPCR measurements were performed using a Step One Plus Real-Time PCR System (Thermo Fisher, Cat #43765592 R) using QuantiTect SYBR Green qPCR Master Mix (Qiagen, Cat #204145) with primers at a concentration of 500 nM. Sequences for RT-qPCR primers used in this manuscript are in Table 2.
For RT-qPCR data arbitrary units (AUs) of gene expression was first calculated using the following equation: 2^(GAPDHCt-TargetCt)×10,000. For FIG. 12B, FIG. 5D, FIG. 7I, FIG. 9E, and FIG. 10H the AUs for each biological replicate were calculated from the mean of technical replicates and a ratio paired t-test was performed between the two conditions compared to determine statistical significance (p). […] For FIG. 3E AUs were normalized to AUs of expression in progenitor media for each biological replicate to obtain fold change. Repeated measures one-way ANOVA was performed with Dunnett's correction on linearized (log-transformed) fold change values comparing all experimental conditions to progenitor medium to determine p.

Assay [2] relates to canalicular stage human lung ALI explants. The assay can be described thus: Lung ALI explant culture, immunofluorescent staining. The class given is cell-based. The note with it: for SFTPA staining in ProSFTPC-positive cells: relative to untreated explants. Here is the method:
Human fetal lung within the canalicular stage of lung development was utilized for lung ALI explant cultures (specifically 15-18.5 weeks post conception). Small pieces (<0.5 cm diameter) were dissected from distal regions of the lung and placed on Nucleopore Track-Etched Membrane disks (13 mm, 8 μm pore, poly-carbonate) (Sigma, Cat #WHA110414) floating on top of 500 μl of human lung ALI explant media (Advanced DMEM/F-12 (Thermo Fisher, Cat #12634010), 2 mM Glutamax (Thermo Fisher, Cat #35050061), 15 mM HEPES (Corning, Cat #25060CI), 1× B27 Supplement (Thermo Fisher, Cat #17504044) 1×N-2 Supplement (Thermo Fisher, Cat #17502048), 100 U/mL penicillin-streptomycin (Thermo Fisher, Cat #15140122)) in a 24-well tissue culture plate (Thermo Fisher, Cat #12565163). Where indicated, 1 μM A-8301 (APE×BIO Cat #A3133), 100 ng/mL rhTGFβ1 (R&D Systems Cat #240-B-002), 100 ng/mL rhNOGGIN (produced in-house) or 100 ng/mL BMP4 (R&D Systems Cat #314-BP-050) was added to human lung ALI explant media.
All samples processed were fixed for 24 h in 10% Neutral Buffered Formalin at room temperature with gentle agitation. Samples were washed 3× with UltraPure DNase/RNase-free distilled water (Thermo Fisher, Cat #10977015) and dehydrated through an alcohol series consisting of 25%, 50%, 75% and 100% methanol, followed by 100% and 70% ethanol. For tissue and explants each step was performed for at least 1 h. For organoids each step was performed for at least 15 min. In the case of explants and organoids, specimens were embedded in Histogel (VWR Cat #83009-992) prior to paraffin processing. Samples were paraffin processed in an automated tissue processor through the following series: 70%, 80%, 2× 95%, 3× 100% ethanol, 3× xylene and 3× paraffin with 1 h for each step. Tissue was embedded into paraffin blocks and cut into 5 μm-thick sections onto charged glass slides using a microtome. Slides were baked for 1 h at 60° C. immediately prior to staining.
Slides were treated with 2× HistoClear II (National Diagnostics, Cat #HS-202) washes, then rehydrated through washes in 100%, 95%, 70%, 30% ethanol for 4 min each, with buffer exchanges performed halfway through washing. Then, slides were washed 2×5 min with ddH20. Antigen retrieval in 1× Sodium Citrate Buffer (100 mM trisodium citrate (Sigma, Cat #S1804), 0.5% Tween-20 (Thermo Fisher, Cat #BP337), pH 6.0) for 20 min at 99° C. After washing 3× in ddH20 slides were blocked for 1 h with blocking solution: 5% normal donkey serum (Sigma, Cat #D9663), 0.1% Tween-20 in PBS. Slides were then incubated in primary antibodies diluted in blocking solution in a humidified chamber at 4° C. overnight. Slides were washed 3× in 1×PBS for 10 min each. Slides were incubated with secondary antibodies and DAPI (1 μg/mL) diluted in blocking solution for 1 h, then were washed 3× in 1×PBS for 5 min each. Slides were mounted in ProLong Gold (Thermo Fisher, Cat #P369300) and imaged within 2 weeks. Primary and secondary antibodies used in this study are available in Table 1.

Assay [3] deals with CK+AB induced AT2-like organoids. Briefly: Expansion of AT2-like organoids in SFFF media (growth, RT-qPCR, IF, FACS). In kind it is cell-based, human. The following applies: for MUC5AC expression (RT-qPCR) on removal of the component from SFFF / SFTPC expression (RT-qPCR) on removal of the component from SFFF: SFFF lacking the component vs SFFF. Here is the method:
After 21 days of differentiation in CK+AB or CK+DCI organoids were passaged and fed with SFFF or SFFF without FGF10 consisting of: Advanced DMEM/F12, 2 mM Glutamax, 1× B27 supplement, 100 U/mL penicillin-streptomycin, 15 mM HEPES, 0.05% BSA, 10 μM TGFβ inhibitor SB43152 (APExBIO, Cat #A8249), 1 μM p38 MAP kinase inhibitor BIRB796 (APExBIO, Cat #A5639), 3 μM CHIR99021, 50 ng/mL rhEGF (R&D Systems, Cat #236-EG) with (SFFF) or without the addition of 10 ng/mL FGF10 (produced in-house). Organoids were passaged every 7-14 days at a ratio of 1:6 by needle sheering^93.
as §1
Organoids were retrieved from Matrigel by mechanical dissociation with a P1000, washed 2× with 1 mL PBS and, resuspended with TrypLE and incubated at 37° C. until a single cell suspension was obtained with light pipetting (typically 10 min). Cells were washed 3× with 1 mL of FACS buffer consisting of PBS, 2% BSA and 10 μM Y-27632 (APE×BIO, Cat #3008) and then filtered through a […] mesh. Cells were stained for 1 h on ice in FACS buffer with a 1:60 dilution of anti HTII-280 IgM antibody. Cells were washed 3× with 1 mL of FACS buffer before 30 min of staining in FACS buffer with a 1:1000 dilution of anti-mouse IgM-Alexaflour-488 secondary antibody (Jackson Immunoresearch, Cat #715545140) on ice. After 3× washes with 1 mL of FACS buffer cells were suspended in FACS buffer with 1:4000 dilution of DAPI. […] All steps were carried out at 4° C. unless otherwise indicated. Cells were pelleted at 500×G for 5 min in swing bucket rotors. FACS was performed on either a Sony MA900 or the ThermoFisher Bigfoot Spectral Cell Sorter and analyzed in FlowJo v10.

Where [4] appears, read: added to bud tip progenitor media, vs progenitor media.
The mark [5] stands for this setting: CK+AB in absence vs presence of ATRA.

As to `Cc1cccc(-c2nn(C(=S)Nc3ccccc3)cc2-c2ccnc3ccccc23)n1` [A-8301], in assay [1] (setting [4]), the “BTP marker SOX9 expression (RT-qPCR)” value was “Neither treatment alone significantly reduced”, the “SFTPA1 expression (RT-qPCR)” value is reported as “significantly increased” and the “SFTPC expression (RT-qPCR)” value was “significantly increased”. Besides, the “SFTPA staining in ProSFTPC-positive cells” value (shortened to “SFTPA staining”) in assay [2] (day 6 ALI explants) is “increased”.

`CC1=C(/C=C/C(C)=C/C=C/C(C)=C/C(=O)O)C(C)(C)CCC1` [ATRA, all-trans retinoic acid]: in assay [1] (setting [5]), the “SFTPB expression (RT-qPCR) on removal of ATRA” value was “reduced”, the “SFTPC expression (RT-qPCR) on removal of ATRA” value is reported as “significantly enhancing” and the “SOX9 expression (RT-qPCR) on removal of ATRA” value is “reducing”.

Take `Cc1ccc(-n2nc(C(C)(C)C)cc2NC(=O)Nc2ccc(OCCN3CCOCC3)c3ccccc23)cc1` [BIRB797, reference compound]: in assay [3], the “MUC5AC expression (RT-qPCR) on removal of the component from SFFF” value was “increased” and the “SFTPC expression (RT-qPCR) on removal of the component from SFFF” value is listed as “improved expression”.

As to “TGFβ1: recombinant TGFβ1, activator of TGFβ-signaling, 100 ng/mL”, in assay [2] (ALI explants), the “TP63 expression in epithelial cells” value is on record as “most epithelial cells expressing TP63”. In addition, in assay [2] (day 6 ALI explants), the ProSFTPC staining entry was “reduced” and the “SFTPA staining” value was “barely detectible”.

B1: BMP4: recombinant BMP4, BMP-activator, 100 ng/mL (R&D Systems) (protein, UniProt P12644 293-408, looked up)
Bone morphogenetic protein 4: SPKHHSQRARKKNKNCRRHSLYVDFSDVGWNDWIVAPPGYQAFYCHGDCPFPLADHLNSTNHAIVQTLVNSVNSSIPKACCVPTELSAISMLYLDEYDKVVLKNYQEMVVEGCGCR
Regarding B1, in assay [1] (setting [4]), the “BTP marker SOX9 expression (RT-qPCR)” value was “Neither treatment alone significantly reduced”, the “HOPX expression (RT-qPCR)” value is on record as “significantly increased”, the “LAMP3 expression (RT-qPCR)” value is listed as “significantly increased” and the “SFTPA1 expression (RT-qPCR)” value was “significantly increased”. The “SFTPB expression (RT-qPCR)” value in assay [1] (setting [4]) is reported as “significantly increased”. The “SFTPA staining” value in assay [2] (day 6 ALI explants) is “robust and readily detectable levels”.

B2: NOGGIN: recombinant BMP inhibitor NOGGIN, 100 ng/mL, produced in-house (protein, UniProt Q13253 28-232, looked up)
Noggin: QHYLHIRPAPSDNLPLVDLIEHPDPIFDPKEKDLNETLLRSLLGGHYDPGFMATSPPEDRPGGGGGAAGGAEDLAELDQLLRQRPSGAMPSEIKGLEFSEGLAQGKKQRLSKKLRRKLQMWLWSQTFCPVLYAWNDLGSRFWPRYVKVGSCFSKRSCSVPEGMVCKPSKSVHLTVLRWRCQRRGGQRCGWIPIQYPIISECKCSC
With B2, the phosphoSMAD1/5/8 staining result in assay [2] (day 6 ALI explants, 100 ng/mL NOGGIN) is on record as “blocked”. Also, in assay [2] (day 6 ALI explants), the “SFTPA staining” value is reported as “did not change”.

B3: FGF10: recombinant human FGF10, 10 ng/mL, produced in-house, component of SFFF (protein, UniProt O15520 38-208, looked up)
Fibroblast growth factor 10: QALGQDMVSPEATNSSSSSFSSPSSAGRHVRSYNHLQGDVRWRKLFSFTKYFLKIEKNGKVSGTKKENCPYSILEITSVEIGVVAVKAINSNYYLAMNKKGKLYGSKEFNNDCKLKERIEENGYNTYASFNWQHNGRQMYVALNGKGAPRRGQKTRRKNTSAHFLPMVVHS
For the molecule B3, in assay [3], the “MUC5AC expression (RT-qPCR) on removal of the component from SFFF” value is “reduction of MUC5AC to near-zero levels” and the “SFTPC expression (RT-qPCR) on removal of the component from SFFF” value was “improved expression”. In addition, in assay [3] (SFFF with vs without FGF10), the “AT2 phenotype of CK+AB differentiated AT2-like cells” value is listed as “repressed”.
